Results published in US8834855B2, “Sunscreen compositions comprising carotenoids” (Promar AS, priority 2005, dated 2014).

Legend:
[1] = Phase distribution of carotenoids in water-ethanol/heptane extraction at different water levels; format: physicochemical; conditions: room temperature, no pH adjustment
Method: (§1) Extraction is performed in a nitrogen atmosphere in equipment covered with aluminium foil. • 1. The pH of a water suspension of the microalgae P. tricornutum (14 g dry weight per liter of water) was adjusted to 8.3 and ethanol was added to a final ratio of water:ethanol=0.3:1.0. • 2. The water-ethanol solution was extracted by mixing with heptane (water-ethanol solution:heptane=1.3:1.0) for 1 hour at 20° C. • 3. The solution was separated into three phases by centrifugation (10 minutes at 3222×g): An upper heptane phase enriched in diadinoxanthin and fucoxanthin, a lower ethanol-water phase enriched in chlorophylls and degradation products of chlorophylls, and a third mid-phase with precipitated materials. The ratio of the concentration of diadinoxanthin to fucoxanthin in the water-ethanol phase was approximately 1:6. • 4. Water was added to the water-ethanol phase until a water:ethanol ratio of 0.7:1.0 was reached. This solution was extracted by a similar amount of heptane and the phases separated by centrifugation (as in step 3). Diadinoxanthin was enriched in the heptane phase (diadinoxanthin:fucoxanthin=1:1), and fucoxanthin and fucoxanthin-derivatives in the ethanol-water phase. • 5. The heptane phase was stored overnight at −20° C. to separate fucoxanthin which was separated by centrifugation as described above. (Alternatively, the precipitated material may be removed with a pipette.) • 6. The heptane phase was used for further purification of diadinoxanthin by HPLC as described hereinbefore to yield […] of the diadinoxanthin found in the starting material. Optimization
Various parameters in the above described basic method were varied to establish the effect of water concentration, pH and temperature on the isolation method.
The method was performed at room temperature without pH adjustment.

[2] = Effects of temperature on extraction for 200 minutes, water:ethanol:heptane 1:1:1, pH 11; format: physicochemical; conditions: for amount in phase after extraction: 1:1:1, pH 11
[3] = Effects of temperature and pH on separation of diadinoxanthin from fucoxanthin (water:ethanol phase extracted with heptane); format: physicochemical
Method: as §1
(§2) Values indicated are for the amount of each compound in the indicated phase. The value in brackets indicates the % distribution between the two phases.

[4] = Recovery of initial amount after extraction at different temperature and pH (stability); format: physicochemical
Excerpt: as §2

[5] = Irradiation absorption in an in vitro skin model (Vitro-skin, integrating sphere transmission); conditions: Miglyol solvent, compared to a conventional SPF 60 sun lotion
Method: A commercial sunscreen SPF60 was used for comparison. Vitro−skin+miglyol was used as the control. Curve 1: Vitro−skin+Miglyol, 2: SPF60, 3:fucoxanthin at 2.76 mg/ml, 4:fucoxanthin at 0.55 mg/ml, 5:fucoxanthin at 0.25 mg/ml, 6:diadinoxanthin at 0.64 mg/ml, 7:diadinoxanthin at 0.13 mg/ml; and
The concentrations are given as the sum of the given compounds and their degradation products (cis-fucoxanthin and diadinochrome). Solid lines with squares—diadinoxanthin. Solid line with diamonds—fucoxanthin. Dashed lines illustrate a projected linear relationship.
The in vitro method of Springsteen was used (Springsteen et al., 1999, Analytica Chimica Acta, 380, p155-164). Vitro-skin was used as the skin simulator and Miglyol (Miglyol 812F Neutraloel CHG. 040906) was used as the solvent. The tests were performed with a Varian Cary 300 Conc UV-Visible Spectrophotometer (with an integrating sphere). Fucoxanthin and diadinoxanthin (isolated as described in Example 2) were tested at the concentrations indicated on FIG. 3.

[6] = water:EtOH:heptane 0:1:1, heptane phase
[7] = water:EtOH:heptane 0:1:1, water-EtOH phase
[8] = water:EtOH:heptane 0.1:1:1, heptane phase
[9] = water:EtOH:heptane 0.1:1:1, water-EtOH phase
[10] = water:EtOH:heptane 0.2:1:1, heptane phase
[11] = water:EtOH:heptane 0.2:1:1, water-EtOH phase
[12] = water:EtOH:heptane 0.4:1:1, heptane phase
[13] = water:EtOH:heptane 0.4:1:1, water-EtOH phase
[14] = NaOH-buffer, pH 12.2, 50° C., Heptane phase
[15] = NaOH-buffer, pH 12.2, 50° C., Water-EtOH phase
[16] = Phosphate, pH 11, 20° C., Heptane phase
[17] = Phosphate, pH 11, 20° C., Water-EtOH phase
[18] = Phosphate, pH 11, 50° C., Heptane phase
[19] = Phosphate, pH 11, 50° C., Water-EtOH phase

Compound | phase distribution [1, 6] [%] | phase distribution [1, 7] [%] | phase distribution [1, 8] [%] | phase distribution [1, 9] [%] | phase distribution [1, 10] [%] | phase distribution [1, 11] [%] | phase distribution [1, 12] [%] | phase distribution [1, 13] [%] | amount in phase after extraction ([2]; 20 °C, Heptane phase) | amount in phase after extraction ([2]; 20 °C, Water-EtOH phase) | amount in phase after extraction ([2]; 35 °C, Heptane phase) | amount in phase after extraction ([2]; 35 °C, Water-EtOH phase) | amount in phase after extraction ([2]; 50 °C, Heptane phase) | amount in phase after extraction ([2]; 50 °C, Water-EtOH phase) | % distribution between the two phases [3, 14] | amount of compound in phase [3, 14] | % distribution between the two phases [3, 15] | amount of compound in phase [3, 15] | % distribution between the two phases [3, 16] [%] | amount of compound in phase [3, 16] | further results
C=Cc1c(C)c2cc3nc(c4c5[n-]c(cc6nc(cc1[n-]2)C(C)=C6CC)c(C)c5C(=O)[C@@H]4C(=O)OC)[C@@H](CCC(=O)OC/C=C(\C)CCC[C@H](C)CCC[C@H](C)CCCC(C)C)[C@@H]3C.[Mg+2] [Chl a, chlorophyll a] | 45 | 55 | 100 | 0 | 93 | 7 | 100 | 0 | 3290 | 0 | 3505 | 0 | 4010 | 0 | – | – | – | – | – | – | –
CC1=C(C#C/C(C)=C/C=C/C(C)=C/C=C/C=C(C)/C=C/C=C(C)/C=C/[C@@]23O[C@]2(C)C[C@@H](O)CC3(C)C)C(C)(C)C[C@H](O)C1 [diadinoxanthin] | 12 | 88 | 93 | 7 | 6 | 94 | 22 | 78 | 1155 | 170 | 1260 | 180 | 1310 | 190 | 100% | 1440 | 0 (0%) | 0 (0%) | 100 | 1500 | % distribution between the two phases [3, 17]: 0 (0%); amount of compound in phase [3, 17]: 0 (0%); % distribution between the two phases [3, 18]: 100%; amount of compound in phase [3, 18]: 1470; % distribution between the two phases [3, 19]: 0 (0%); amount of compound in phase [3, 19]: 0 (0%); Total present in both phases ([4]; NaOH-buffer, pH 12.2, 50° C.): 1440; Total present in both phases ([4]; Phosphate, pH 11, 20° C.): 1500; Total present in both phases ([4]; Phosphate, pH 11, 50° C.): 1470; stability under the temperature and pH conditions used ([4]; pH 11): stable under the conditions used; ability to absorb irradiation [5]: ability to absorb irradiation, particularly in the blue light range of the spectrum, but also in the upper UVA area
CC(=O)O[C@H]1CC(C)(C)C(=C=C/C(C)=C/C=C/C(C)=C/C=C/C=C(C)/C=C/C=C(\C)C(=O)C[C@@]23O[C@]2(C)C[C@@H](O)CC3(C)C)[C@](C)(O)C1 [fucoxanthin] | 7 | 93 | 49 | 51 | 2 | 98 | 3 | 97 | 1065 | 380 | 610 | 210 | 95 | 0 | 0 (0%) | 0 (0%) | 0 (0%) | 0 (0%) | 95 | 4860 | % distribution between the two phases [3, 17]: 5%; amount of compound in phase [3, 17]: 260; % distribution between the two phases [3, 18]: 95%; amount of compound in phase [3, 18]: 2745; % distribution between the two phases [3, 19]: 5%; amount of compound in phase [3, 19]: 135; Total present in both phases ([4]; NaOH-buffer, pH 12.2, 50° C.): 0; Total present in both phases ([4]; Phosphate, pH 11, 20° C.): 5120; Total present in both phases ([4]; Phosphate, pH 11, 50° C.): 2880; stability under the temperature and pH conditions used ([4]; pH 11 to 12.2, 20 to 50° C.): more sensitive to extreme temperatures and pH; ability to absorb irradiation [5]: ability to absorb irradiation, particularly in the blue light range of the spectrum, but also in the upper UVA area; stability at various temperatures ([2]; 20, 35, 50 °C, pH 11): more sensitive to higher temperatures
